Tested on: B16-F10 murine melanoma cells
Assay: Experimental metastasis assay (lung metastases after i.v. injection of cancer cells)
Format: in vivo, female nude (CD-1)BR mice
Conditions: for reduction in the number of lung metastases with respect to untreated controls: DOX 5 mg/kg i.p. +24 h, NAC 2 g/kg p.o. daily
Description: DOX was used in the form of commercial injectable product, containing 10 mg of drug per vial (Adriblastina®, Farmitalia - Carlo Erba, Milano, Italia), to be dissolved in distilled water when injected. In the experiments wherein the oral administration was provided, NAC was used in the form of commercial product containing 200 mg of NAC per dosage (Fluimucil®, Zambon Italia, Vicenza), directly dissolved in the drinking water of mice. In the experiments wherein the parenteral (i.p. or i.v.) administration of NAC was foreseen, a 98% pure laboratory reagent (Sigma Chemical Co., St. Louis, MO, U.S.A.) was used, dissolved in a phosphate buffer (PBS), pH 7.4, and furtherly brought to neutrality with NaOH 0.1 N ("spontaneous" metastasis assays) or in NaCl 0.15 M, taking the solution to pH 7.0 (experimental metastasis assays).
A total of 385 adult mice was used (Charles River, Calco, Como, Italia) of which 196 female nude (CD-1)BR mice, aged 7 weeks, average weight of 25 g and 189 female C57BL/6 mice aged 6-8 weeks, average weight of 20 g, used in the experimental metastasis assays and in those of "spontaneous" metastases respectively. The (CD-1)BR mice were housed in sterile cages with filtering cover, in a number of 3 animals per cage, at a room temperature of 26-28°C, with a relative humidity of 55%, a ventilation accounting for 12-15 air/h renewals and a 12 hours day/night cycle; the C57BL/6 mice were stabulated in a number of 5 animals per cage, at a temperature of 25-27°C, with a relative humidity of 50% and a 12 hours day/night cycle. The (CD-1)BR mice received a special diet sterilized under vacuum (Mucedola S.r.L, Settimo Milanese, Milano, Italia) and sterilized drinking water; the C57BL/6 mice received a standard rodent diet (MIL Topi e Ratti, Morini, S. Polo d'Enza, Reggio Emilia, Italia) and drinking water ad libitum throughout the duration of the experiments. Within the experiments wherein the sacrifice of mice was foreseen at a scheduled time, killing was carried out by means of ethyl ether anaesthesia and subsequent cervical dislocation. The stabulation and all the animal treatments were carried out in accordance with the national and Community guidelines (D.L. 27.01.1992 N. 116; 86/609/EEC Directive).
In this kind of assay cancer cells were injected in the lateral tail vein, in order to avoid the formation of primary tumors and directly provide the spread of metastases in the lungs. B16-F10 murine melanoma cells were used, resuspended in serum-free Eagle's MEM medium, and injected i.v. in a volume of 100 µl (5 x 10^4 cells/mouse). As reported in Table 1, wherein also the number of mice included in each experimental group is indicated, 4 groups were always involved in each experiment, namely a control group (either untreated mice or treated with NaCl 0.15M), a group of mice treated with DOX only, a group of mice treated with NAC only and a group of mice treated with the two combined drugs.
In particular, in experiment #1 DOX was injected in a single dose (5 mg/kg body weight) by i.p. route 24 hours after injection of cancer cells, whereas NAC was administered every day with drinking water, at a calculated dose of 2 g/kg body weight, starting 3 days before injection of cancer cells and continuing throughout the duration of the experiment.
In experiment #2 DOX was injected in a single dose (10 mg/kg body weight) by i.v. route 3 days after injection of cancer cells, whereas NAC was administered daily by i.p. route (1 g/kg body weight), starting 8 hours before injection of cancer cells and continuing for 8 days.
In experiment #3 both DOX and NAC were injected by i.v. route 24 hours after injection of cancer cells, […]; in the combined treatment therefore the two drugs were injected after being mixed into the same syringe.
In experiment #4, wherein the control and DOX groups were the same as experiment #3, NAC was injected by i.v. route together with cancer cells, dissolved in the culture medium at a concentration of 10 mM. […]

[1] = experiment #1, DOX 5 mg/kg i.p. +24h, NAC 2 g/kg p.o. -3/+25 days, DOX+NAC same doses, killed at 25 days
[2] = experiment #1, combined same doses
[3] = experiment #2, DOX 10 mg/kg i.v. +3 days, NAC 1 g/kg i.p. -8 h/+8 days, DOX+NAC same doses, killed at 29 days
[4] = experiment #2, DOX 10 mg/kg i.v. +3 days, NAC 1 g/kg i.p. daily -8 h/+8 days, combined same doses
[5] = experiment #2, NAC 1 g/kg i.p. daily -8 h/+8 days
[6] = experiment #3, DOX 1 mg/kg i.v. +24 h, NAC 6.4 mg/kg i.v. +24 h, combined in the same injection
[7] = experiment #3, DOX 1 mg/kg i.v. +24 h, NAC 6,4 mg/kg i.v. +24 h, DOX+NAC mixed in the same syringe, killed at 27 days
[8] = experiment #4, DOX 1 mg/kg i.v. +24 h, NAC 10 mM in cancer cells culture medium, combined same doses
[9] = experiment #4, DOX 1 mg/kg i.v. +24 h, NAC 10 mM in culture medium of the injected cancer cells, DOX+NAC same doses, killed at 27 days

| SMILES | Lung metastases No. (mean ± ES) [1] [No.] | Mice with metastases (No.) 0 [1] [No.] | Mice with metastases (No.) 1-10 [1] [No.] | Mice with metastases (No.) 11-50 [1] [No.] | Mice with metastases (No.) ≥51 [1] [No.] | reduction in the number of lung metastases with respect to untreated controls [2] [fold] | Lung metastases No. (mean ± ES) [3] [No.] | Mice with metastases (No.) 0 [3] [No.] | Mice with metastases (No.) 1-10 [3] [No.] | Mice with metastases (No.) 11-50 [3] [No.] | Mice with metastases (No.) ≥51 [3] [No.] | reduction in the number of lung metastases with respect to controls [4] [fold] | reduction in the number of lung metastases with respect to controls [6] [fold] | Lung metastases No. (mean ± ES) [7] [No.] | Mice with metastases (No.) 0 [7] [No.] | Mice with metastases (No.) 1-10 [7] [No.] | Mice with metastases (No.) 11-50 [7] [No.] | Mice with metastases (No.) ≥51 [7] [No.] | reduction in the number of lung metastases with respect to controls [8] [fold] | Lung metastases No. (mean ± ES) [9] [No.] | other results |
| --- | --- | --- | --- | --- | --- | --- | --- | --- | --- | --- | --- | --- | --- | --- | --- | --- | --- | --- | --- | --- | --- |
| CC(=O)N[C@@H](CS)C(=O)O [NAC, N-acetyl-cysteine] | 42.1 ± 15.8 | 0 | 3 | 7 | 2 | 1.3 | 25.1 ± 10.2 | 5 | 4 | 3 | 3 | 0.5 | 2.8 | 13.1 ± 8.9 | 5 | 2 | 3 | 1 | 14.7 | 2.5 ± 0.7 | frequency of animals with metastases (effect in words) [5]: did not affect; multiplicity of lung metastases (effect in words) [5]: even increased their multiplicity, but not to a significant extent; Mice with metastases (No.) 0 [9]: 4 No.; Mice with metastases (No.) 1-10 [9]: 7 No.; Mice with metastases (No.) 11-50 [9]: 0 No.; Mice with metastases (No.) ≥51 [9]: 0 No. |
| COc1cccc2c1C(=O)c1c(O)c3c(c(O)c1C2=O)C[C@@](O)(C(=O)CO)C[C@@H]3O[C@H]1C[C@H](N)[C@H](O)[C@H](C)O1 [DOX, Doxorubicin] | 13.1 ± 11.6 | 2 | 4 | 5 | 0 | 4.1 | 0.7 ± 0.3 | 10 | 5 | 0 | 0 | 17.4 | 1.3 | 29.2 ± 13.7 | 3 | 5 | 0 | 3 | 1.3 | 29.2 ± 13.7 | frequency of mice affected by metastases (experiment #2, DOX 10 mg/kg i.v. +3 days, NAC 1 g/kg i.p. daily, controls 66.7%): 33.3%; Mice with metastases (No.) 0 [9]: 3 No.; Mice with metastases (No.) 1-10 [9]: 5 No.; Mice with metastases (No.) 11-50 [9]: 0 No.; Mice with metastases (No.) ≥51 [9]: 3 No.; modulating the induction of lung metastases (effect in words) (experiments #3 and #4, DOX 1 mg/kg i.v. +24 h): almost ineffective at all |
